Measurements as given in ChEMBL document CHEMBL1124161, “4-Hydroxy-3-quinolinecarboxamides with antiarthritic and analgesic activities” (J Med Chem, 1988).

test system: Mus musculus; experiment: Analgesic activity against acetic acid induced writhing test in mouse after peroral administration; format: functional; conditions: Mus musculus, po; read-out: ED50

| SMILES | ED50 |
| --- | --- |
| O=C(Nn1ccnn1)c1cnc2c(C(F)(F)F)cccc2c1O | > 50 mg/kg |
| O=C(Nc1nccs1)c1c(C(F)(F)F)nc2cc(C(F)(F)F)ccc2c1O | 5 mg/kg |
| O=C(NC1CCCCC1)c1cnc2c(C(F)(F)F)cccc2c1O | > 50 mg/kg |
| O=C(Nc1nccs1)c1c(C(F)(F)F)nc2ccccc2c1O | 8 mg/kg |
| O=C(Nc1ncccn1)c1cnc2c(C(F)(F)F)cccc2c1O | 50 mg/kg |
| COc1cccc2c(O)c(C(=O)Nc3nccs3)cnc12 | > 50 mg/kg |
| O=C(Nc1nccs1)c1c(C(F)(F)F)nc2c(Cl)cccc2c1O | 2 mg/kg |
| O=C(Nc1nccs1)c1c(C(Cl)Cl)nc2cc(Cl)ccc2c1O | > 100 mg/kg |
| O=C(Nc1nccs1)c1c(C(F)(F)F)nc2ccc(C(F)(F)F)cc2c1O | 100 mg/kg |
| CC(C)c1nc2c(C(F)(F)F)cccc2c(O)c1C(=O)Nc1nccs1 | 5 mg/kg |
| O=C(Nc1nccs1)c1c(C(F)(F)F)nc2c(Cl)ccc(C(F)(F)F)c2c1O | > 50 mg/kg |
| CCc1nc2c(C(F)(F)F)cccc2c(O)c1C(=O)Nc1nccs1 | 3 mg/kg |
| O=C(Nc1nccs1)c1c(C(F)(F)F)nc2cccc(C(F)(F)F)c2c1O | 20 mg/kg |
| CCc1nc2c(C(F)(F)F)cccc2c(O)c1C(=O)Nc1ncco1 | 15 mg/kg |
| O=C(Nc1ccccn1)c1c(C(F)(F)F)nc2c(C(F)(F)F)cccc2c1O | > 20 mg/kg |
| CC(O)c1nc2c(C(F)(F)F)cccc2c(O)c1C(=O)Nc1ccccn1 (stereo unspecified) | > 50 mg/kg |
| O=C(Nc1nccs1)c1c(C(Cl)Cl)nc2ccc(Cl)cc2c1O | 25 mg/kg |
| O=C(Nc1nccs1)c1cnc2ccc(C(F)(F)F)cc2c1O | 40 mg/kg |
| COc1ccc2nc(C(F)(F)F)c(C(=O)Nc3nccs3)c(O)c2c1 | 30 mg/kg |
| Cc1cc(NC(=O)c2c(C(F)(F)F)nc3c(C(F)(F)F)cccc3c2O)no1 | > 50 mg/kg |
| O=C(Nc1ccccn1)c1c(C(Cl)Cl)nc2c(C(F)(F)F)cccc2c1O | 20 mg/kg |
| O=C(Nc1ncco1)c1c(C(F)(F)F)nc2c(C(F)(F)F)cccc2c1O | > 100 mg/kg |
| Cn1nccc1NC(=O)c1cnc2c(C(F)(F)F)cccc2c1O | 50 mg/kg |

| SMILES | ED50 |
| --- | --- |
| CCc1nc2c(C(F)(F)F)cccc2c(O)c1C(=O)Nc1nccn1C | 50 mg/kg |
| O=C(Nc1nccs1)c1c(C(F)(F)F)nc2c(F)cccc2c1O | 5 mg/kg |
| O=C(Nc1nccs1)c1cnc2c(Cl)cccc2c1O | 100 mg/kg |
| O=C(Nc1ccccn1)c1cnc2c(C(F)(F)F)cccc2c1O | > 50 mg/kg |
| O=C(Nc1nccs1)c1c(C(F)(F)F)nc2ccc(Cl)cc2c1O | > 25 mg/kg |
| Cc1nc2c(C(F)(F)F)cccc2c(O)c1C(=O)Nc1nccs1 | 4 mg/kg |
| O=C(Nc1nccs1)c1c(C(F)F)nc2c(C(F)(F)F)cccc2c1O | 5 mg/kg |
| O=C(Nc1nccs1)c1c(C(F)(F)C(F)(F)F)nc2c(C(F)(F)F)cccc2c1O | 20 mg/kg |
| O=C(Nc1nccs1)c1c(C(Cl)Cl)nc2ccccc2c1O | > 25 mg/kg |
| O=C(Nc1nccs1)c1cnc2ccccc2c1O | > 10 mg/kg |
| CC(C)Cc1nc2c(C(F)(F)F)cccc2c(O)c1C(=O)Nc1nccs1 | 30 mg/kg |
| O=C(Nc1nccs1)c1cnc2c(SC(F)(F)F)cccc2c1O | > 50 mg/kg |
| O=C(Nc1ccccc1)c1cnc2c(C(F)(F)F)cccc2c1O | > 50 mg/kg |
| CCc1nc2c(C(F)(F)F)cccc2c(O)c1C(=O)Nc1cc(C)on1 | > 50 mg/kg |
| O=C(Nc1ncc[nH]1)c1cnc2c(C(F)(F)F)cccc2c1O | 18 mg/kg |
| Cn1ccnc1NC(=O)c1cnc2c(C(F)(F)F)cccc2c1O | 16 mg/kg |
| O=C(Nc1ncco1)c1cnc2c(C(F)(F)F)cccc2c1O | > 100 mg/kg |
| O=C(Nc1nccs1)c1cnc2cc(C(F)(F)F)ccc2c1O | 100 mg/kg |
| O=C(Nc1nccs1)c1c(C(F)(F)F)nc2cc(Cl)ccc2c1O | > 25 mg/kg |
| O=C(Nc1nccs1)c1cnc2c(OC(F)(F)F)cccc2c1O | > 50 mg/kg |
| Cc1nc2c(C(F)(F)F)cccc2c(O)c1C(=O)Nc1ccccn1 | 5 mg/kg |
| CC(C)(C)c1nc2c(C(F)(F)F)cccc2c(O)c1C(=O)Nc1nccs1 | > 100 mg/kg |

same assay, conditions: read-out: ED50

| SMILES | ED50 |
| --- | --- |
| CC(Cl)c1nc2c(C(F)(F)F)cccc2c(O)c1C(=O)Nc1nccs1 (stereo unspecified) | 25 mg/kg |
